In US11897862B2 (Gilead Sciences, Inc., priority 2022, dated 2024):

What was measured:
Format in all cases: cell-based
[1] = biological target: T1, SALL4 (Homo sapiens, UniProt Q96SW2+Q9UJQ4); assay: HEK293 HiBiT in vitro degradation of SALL4; conditions: for DC50: 18-24 hr incubation, normalized to DMSO control, read-out: SALL4 EC50
T1 construct: expressed in transfected cells
Experimental: In vitro degradation of IKZF1, IKZF2, and SALL4 was measured using HiBiT protein tagging and detection technology (Promega).
HiBit technology was used to develop the quantitative assays to measure the cellular IKZFs level by tagging an 11 amino acid HiBit peptides […] to the protein of interest. Reporter plasmids were generated by fusing a linker sequence ([…]) followed by the HiBit tag at the C-terminus of IKZF1, IKZF2, and SALL4. The fusion fragments were subsequently cloned into pcDNA5 pcDNA™5/FRT/TO plasmids (Thermo Fisher, cat #V652020) downstream of the tetracycline operator. The resulting plasmids were co-transfected with pOG44 Flp-Recombinase Expression Vector (Thermo Fisher, cat #V600520) into Flp-In™ T-REx HEK293 line (Thermo Fisher, cat #R78077) and a stable cell pool was selected by adding 100 µg/ml of Hygromycin (Thermo Fisher, cat #10687010). The reporter cell enabled Tet-On inducible reporter expression from a single copy of the integrated gene.
On Day 1, Cells were grown to ˜80% confluency in tissue culture medium (DMEM Glutamax (Gibco10569), 10% Tet free FBS (Takara 631106), and PenStrep Glutamin (Gibco 10378)) in tissue culture flasks. Doxycycline was then added to a final concentration of […] to induce reporter expression at 37° C. overnight.
On Day 2, 125 nL of serially-diluted solution of testing compounds were dispensed into 384-well white solid assay plates via ECHO acoustic liquid handler. Cells were lifted by 0.25% Trypsin (Gibco 25200) then pelleted by centrifugation (Beckman Avanti J-E) at 500×g for 5 min. Cell pellets were resuspended in TC medium at the concentration of 3e5/mL and 25 μL of cell suspension were added into each well of compound-spotted plates. The plates were returned to a 37° C. incubator overnight (18-24 hr).
On Day 3, assay plates were removed from the tissue culture incubator and 25 μL of Nano-Glo lytic detection system (Promega, cat #N3030) was added to each well. Plates were incubated at r.t. for 3 min with shaking, and luminescence was read using an Envision reader (Perkin Elmer).
To assess the IKZF1, IKZF2, and SALL4 degrader potential of exemplified compounds of this disclosure and certain Reference Compounds EC50 and Dmax values were determined for the compounds of Examples 1 to 383 and Reference Compounds A-1, B-1, B-2, B-3, B-4, and C-1 in the HiBiT assays. Asterisks (*) indicate examples for which the data shown represents an average of n≥3.

[2] = biological target: T2, IKZF1 (Homo sapiens, UniProt Q13422+Q96SW2); assay: HEK293 HiBiT in vitro degradation of IKZF1; conditions: for Dmax: HEK293, HEK293 HiBiT; for Dmax / IKZF1 Dmax: maximum degradation at the highest concentration tested; for DC50 / IKZF1 Dmax: HEK293 HiBiT; for DC50: 18-24 hr incubation, normalized to DMSO control, read-out: IKZF1 EC50
T2 construct: expressed in transfected cells
T2 sequence (Q13422 whole entry): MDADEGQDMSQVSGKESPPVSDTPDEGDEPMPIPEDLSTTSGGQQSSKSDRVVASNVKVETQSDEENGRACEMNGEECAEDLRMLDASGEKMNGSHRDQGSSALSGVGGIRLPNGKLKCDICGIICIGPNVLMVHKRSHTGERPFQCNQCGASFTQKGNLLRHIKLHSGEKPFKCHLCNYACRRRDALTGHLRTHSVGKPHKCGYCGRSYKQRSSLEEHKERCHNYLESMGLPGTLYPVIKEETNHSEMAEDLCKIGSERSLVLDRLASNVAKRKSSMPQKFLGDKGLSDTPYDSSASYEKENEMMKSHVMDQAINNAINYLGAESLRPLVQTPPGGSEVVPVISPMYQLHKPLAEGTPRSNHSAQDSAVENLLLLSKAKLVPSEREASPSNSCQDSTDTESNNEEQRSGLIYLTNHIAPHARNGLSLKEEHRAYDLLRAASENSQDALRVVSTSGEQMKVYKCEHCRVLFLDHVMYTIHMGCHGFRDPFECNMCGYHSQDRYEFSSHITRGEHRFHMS
T2 sequence (Q96SW2 whole entry): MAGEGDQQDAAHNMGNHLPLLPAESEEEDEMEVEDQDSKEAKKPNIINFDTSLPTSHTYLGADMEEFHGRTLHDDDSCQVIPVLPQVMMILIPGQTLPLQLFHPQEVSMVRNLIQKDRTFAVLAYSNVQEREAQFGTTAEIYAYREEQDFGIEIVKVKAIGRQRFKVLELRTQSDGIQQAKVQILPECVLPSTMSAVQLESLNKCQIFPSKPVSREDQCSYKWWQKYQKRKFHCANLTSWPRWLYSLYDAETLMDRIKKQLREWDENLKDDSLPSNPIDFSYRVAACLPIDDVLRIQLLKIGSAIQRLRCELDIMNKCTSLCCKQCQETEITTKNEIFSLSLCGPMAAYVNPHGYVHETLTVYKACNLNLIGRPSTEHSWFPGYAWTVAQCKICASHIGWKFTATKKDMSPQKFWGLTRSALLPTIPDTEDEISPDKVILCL
T2 sequence (Q16531 whole entry partner): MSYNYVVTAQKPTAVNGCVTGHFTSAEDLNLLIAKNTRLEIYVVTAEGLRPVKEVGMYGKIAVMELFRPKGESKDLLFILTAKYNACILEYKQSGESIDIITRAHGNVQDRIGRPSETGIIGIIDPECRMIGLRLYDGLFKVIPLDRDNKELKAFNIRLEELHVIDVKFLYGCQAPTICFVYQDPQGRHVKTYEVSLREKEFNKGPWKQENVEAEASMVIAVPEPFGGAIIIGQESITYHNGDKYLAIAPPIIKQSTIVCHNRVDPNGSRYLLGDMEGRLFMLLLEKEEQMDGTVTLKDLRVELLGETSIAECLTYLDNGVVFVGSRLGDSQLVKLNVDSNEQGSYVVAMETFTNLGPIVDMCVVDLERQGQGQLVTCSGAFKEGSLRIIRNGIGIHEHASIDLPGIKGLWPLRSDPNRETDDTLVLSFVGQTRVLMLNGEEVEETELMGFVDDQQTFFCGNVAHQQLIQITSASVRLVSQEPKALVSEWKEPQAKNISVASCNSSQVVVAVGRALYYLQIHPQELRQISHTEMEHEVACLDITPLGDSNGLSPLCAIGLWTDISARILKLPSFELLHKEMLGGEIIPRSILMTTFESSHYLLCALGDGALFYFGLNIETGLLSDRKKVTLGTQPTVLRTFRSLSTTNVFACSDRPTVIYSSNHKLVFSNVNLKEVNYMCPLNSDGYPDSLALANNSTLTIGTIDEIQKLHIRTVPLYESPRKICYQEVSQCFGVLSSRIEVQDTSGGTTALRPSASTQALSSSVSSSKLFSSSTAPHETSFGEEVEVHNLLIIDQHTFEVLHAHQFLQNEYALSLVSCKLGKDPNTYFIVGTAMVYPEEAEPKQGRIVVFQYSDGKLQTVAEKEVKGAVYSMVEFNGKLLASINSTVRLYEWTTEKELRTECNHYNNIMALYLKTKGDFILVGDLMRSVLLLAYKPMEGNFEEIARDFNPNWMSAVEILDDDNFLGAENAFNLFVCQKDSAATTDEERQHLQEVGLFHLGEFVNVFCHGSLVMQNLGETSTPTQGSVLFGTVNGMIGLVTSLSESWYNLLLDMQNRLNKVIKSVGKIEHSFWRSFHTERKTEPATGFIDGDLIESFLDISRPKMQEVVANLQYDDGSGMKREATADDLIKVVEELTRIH
Procedure, shortened: (§1)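 EC50 and Dmax come from Nano-Glo lytic luminescence after 18-24 hr compound treatment at 37° C. Reporter cells were single-copy Flp-In T-REx HEK293 pools carrying HiBiT fused to the C-terminus of IKZF1, IKZF2 or SALL4. Expression was induced overnight beforehand with […] doxycycline.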

[3] = biological target: T3, IKZF2 (Homo sapiens, UniProt Q96SW2+Q9UKS7); assay: HEK293 HiBiT in vitro degradation of IKZF2; set-up: expressed in transfected cells; conditions: for Dmax: HEK293, HEK293 HiBiT; for Dmax / IKZF2 Dmax: maximum degradation at the highest concentration tested; for DC50 / IKZF2 Dmax: HEK293 HiBiT; for DC50: 18-24 hr incubation, normalized to DMSO control, read-out: IKZF2 EC50
Procedure, shortened: as §1
Target sequence in this assay (Q9UKS7 1-500 isoform Q9UKS7-2): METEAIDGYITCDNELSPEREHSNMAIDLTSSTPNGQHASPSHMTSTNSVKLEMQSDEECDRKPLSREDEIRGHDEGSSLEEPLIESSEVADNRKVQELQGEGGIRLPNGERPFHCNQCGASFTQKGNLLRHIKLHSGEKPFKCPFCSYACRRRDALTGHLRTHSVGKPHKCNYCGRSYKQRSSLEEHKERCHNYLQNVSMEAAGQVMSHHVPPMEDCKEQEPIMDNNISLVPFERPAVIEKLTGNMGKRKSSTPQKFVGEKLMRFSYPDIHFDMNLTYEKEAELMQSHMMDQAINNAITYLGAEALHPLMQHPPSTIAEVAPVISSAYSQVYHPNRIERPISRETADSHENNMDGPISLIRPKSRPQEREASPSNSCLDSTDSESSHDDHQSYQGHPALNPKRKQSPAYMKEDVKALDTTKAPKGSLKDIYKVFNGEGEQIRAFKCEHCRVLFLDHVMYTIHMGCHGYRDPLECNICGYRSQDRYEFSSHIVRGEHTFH
Target sequence in this assay (Q96SW2 whole entry): as the sequence (Q96SW2 whole entry) above
Target sequence in this assay (Q16531 whole entry partner): as the sequence (Q16531 whole entry partner) above

[4] = biological target: T3, IKZF2; assay: Human whole blood IKZF2 degradation (flow cytometry, CD4/CD25/Foxp3+ Treg cells); set-up: endogenous in cells; conditions: 24 hrs incubation, IKZF2 MFI in CD4/CD25/Foxp3+ Treg cells, flow cytometry; for DC50: read-out: IKZF2 EC50
Experimental: In vitro IKZF2 potency was assessed in human whole blood using a fluorescence activated cell sorting assay. 50 μL of freshly collected blood from healthy human volunteers was incubated with Immunocult CD3/CD28 activator (Stemcell Technologies) and solution of testing compounds (serially-diluted) for 24 hrs hours at 37° C. in 384 well plates. The treated red blood cells were removed by adding lysis buffer (BD cat #558049) then the cells were fixed, permeabilized, and stained with anti-CD4 (BD cat #564419), anti-Foxp3 (Invitrogen cat #48-4777-42), anti-IKZF1 (Cell Signaling Tech. cat #33462S), and anti-IKZF2(Cell Signaling Tech. cat #65432S) antibodies. The median fluorescent intensity (MFI) of IKZF2 signal from CD4/CD25/Foxp3+ Treg cells and MFI of IKZF1 signal from CD4+ T cells were quantified in the same samples by flow cytometry using an Attune instrument. EC50 and Dmax of each compound was determined by plotting the MFI and DMSO treated wells were used as control. Asterisks (*) indicate examples for which data represents an average of n≥3 repeat experiments.
Target sequence in this assay (Q9UKS7 whole entry): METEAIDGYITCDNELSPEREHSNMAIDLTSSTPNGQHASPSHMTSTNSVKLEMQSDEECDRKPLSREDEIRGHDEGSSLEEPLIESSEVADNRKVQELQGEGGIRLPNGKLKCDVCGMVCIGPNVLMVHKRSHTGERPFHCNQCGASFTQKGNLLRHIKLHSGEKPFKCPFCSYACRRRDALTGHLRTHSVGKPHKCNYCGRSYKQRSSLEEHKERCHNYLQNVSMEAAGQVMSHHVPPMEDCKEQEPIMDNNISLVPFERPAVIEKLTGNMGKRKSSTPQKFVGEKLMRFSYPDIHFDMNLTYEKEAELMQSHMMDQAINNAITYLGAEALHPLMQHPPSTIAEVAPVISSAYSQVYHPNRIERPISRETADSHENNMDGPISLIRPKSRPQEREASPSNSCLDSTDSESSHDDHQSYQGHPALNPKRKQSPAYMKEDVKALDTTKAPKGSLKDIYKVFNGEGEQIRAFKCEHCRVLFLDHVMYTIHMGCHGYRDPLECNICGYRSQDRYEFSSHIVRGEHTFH
Target sequence in this assay (Q96SW2 whole entry): as the sequence (Q96SW2 whole entry) above
Target sequence in this assay (Q16531 whole entry partner): as the sequence (Q16531 whole entry partner) above

T1 sequence (Q9UJQ4 whole entry): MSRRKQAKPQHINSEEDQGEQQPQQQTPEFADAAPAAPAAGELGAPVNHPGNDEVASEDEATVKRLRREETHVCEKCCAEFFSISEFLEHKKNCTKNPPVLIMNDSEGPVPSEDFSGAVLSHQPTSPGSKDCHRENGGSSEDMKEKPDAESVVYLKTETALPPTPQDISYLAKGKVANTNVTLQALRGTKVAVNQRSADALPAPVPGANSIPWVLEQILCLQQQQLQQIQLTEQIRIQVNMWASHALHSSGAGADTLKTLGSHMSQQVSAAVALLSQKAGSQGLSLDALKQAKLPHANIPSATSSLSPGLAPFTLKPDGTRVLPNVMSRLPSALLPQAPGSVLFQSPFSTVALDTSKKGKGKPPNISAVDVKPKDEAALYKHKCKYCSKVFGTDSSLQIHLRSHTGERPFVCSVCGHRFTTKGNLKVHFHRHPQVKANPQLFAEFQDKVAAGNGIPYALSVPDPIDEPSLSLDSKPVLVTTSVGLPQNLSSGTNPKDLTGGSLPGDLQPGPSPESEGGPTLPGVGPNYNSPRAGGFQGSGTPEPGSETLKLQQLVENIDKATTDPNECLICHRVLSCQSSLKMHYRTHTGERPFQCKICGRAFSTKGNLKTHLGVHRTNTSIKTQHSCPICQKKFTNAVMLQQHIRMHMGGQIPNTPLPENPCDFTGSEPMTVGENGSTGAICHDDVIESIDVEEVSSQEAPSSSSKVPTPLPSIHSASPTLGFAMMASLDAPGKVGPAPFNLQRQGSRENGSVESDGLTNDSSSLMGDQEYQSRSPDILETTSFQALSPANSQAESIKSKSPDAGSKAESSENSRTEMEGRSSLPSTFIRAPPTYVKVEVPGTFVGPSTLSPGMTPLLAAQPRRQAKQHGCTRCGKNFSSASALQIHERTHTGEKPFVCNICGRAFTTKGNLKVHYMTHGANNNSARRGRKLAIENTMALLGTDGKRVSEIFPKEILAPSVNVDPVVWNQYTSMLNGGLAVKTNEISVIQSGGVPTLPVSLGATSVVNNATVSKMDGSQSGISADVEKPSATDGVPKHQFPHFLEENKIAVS
T1 sequence (Q96SW2 whole entry): as the sequence (Q96SW2 whole entry) above
T1 sequence (Q16531 whole entry partner): as the sequence (Q16531 whole entry partner) above

Structure (SMILES)	DC50 [1] [nM]	Dmax [2] [%]	DC50 [2] [nM]	Dmax [3] [%]	DC50 [3] [nM]	Dmax ([1]; maximum degradation at the highest concentration tested) [%]	IKZF1 Dmax [2] [%]	IKZF2 Dmax [3] [%]	IKZF2 Dmax [4] [%]	DC50 [4] [nM]	Dmax [4] [%]
O=C1CCC(N2Cc3cc(C[C@H]4CCCC[C@@H]4NC4CCc5[nH]nc(C(F)(F)F)c5C4)ccc3C2=O)C(=O)N1 (stereo partly drawn) [Example 352]	3100	47	323	99	3	47					
CC(N[C@H]1CCCC[C@@H]1Cc1ccc2c(c1)CN(C1CCC(=O)NC1=O)C2=O)C1CCC1 (stereo partly drawn) [Example 219]			> 1000		6			95	97	10	
O=C1CCC(N2Cc3cc(C[C@H]4CCCC[C@@H]4NC4CCOCC4)ccc3C2=O)C(=O)N1 (stereo partly drawn) [Example 74]		55	226	96	4					3	93
CCC(C)N[C@H]1CCCC[C@@H]1Cc1ccc2c(c1)CN(C1CCC(=O)NC1=O)C2=O (single isomer, unassigned) [Example 299]			> 1000	98	2					2	96
O=C1CCC(N2Cc3cc(C[C@H]4CCCC[C@@H]4NC4CCC5(CC4)CC5)ccc3C2=O)C(=O)N1 (stereo partly drawn) [Example 28, 3-(1-oxo-5-(((1R,2S)-2-(spiro[2.5]octan-6-ylamino)cyclohexyl)methyl)isoindolin-2-yl)piperidine-2,6-dione]		56	327	97	2					3	99
COCC1CCC(N[C@H]2CCCC[C@@H]2Cc2ccc3c(c2)CN(C2CCC(=O)NC2=O)C3=O)CC1 (single isomer, unassigned) [Example 251]		35	213	98	1					2	98
O=C1CCC(N2Cc3cc(C[C@H]4OCCC[C@@H]4NC4CCCCC4)ccc3C2=O)C(=O)N1 (stereo partly drawn) [Example 95, 3-(5-(((2R,3S)-3-(cyclohexylamino)tetrahydro-2H-pyran-2-yl)methyl)-1-oxoisoindolin-2-yl)piperidine-2,6-dione]			> 10000	88	16					11	89
CC(N[C@H]1CCCC[C@@H]1Cc1ccc2c(c1)CN(C1CCC(=O)NC1=O)C2=O)C1(C)CCC1 (stereo partly drawn) [Example 206]			> 1000	95	6					10	101
CC(N[C@H]1CCCO[C@@H]1Cc1ccc2c(c1F)CN(C1CCC(=O)NC1=O)C2=O)C1CCC1 (single isomer, unassigned) [Example 247]			> 1000	97	5					4	95
O=C1CCC(N2Cc3c(ccc(C[C@H]4OCCC[C@@H]4NC4CCCC4)c3F)C2=O)C(=O)N1 (stereo partly drawn) [Example 148]			> 1000	94	7					6	92
CC(N[C@H]1CCCC[C@@H]1Cc1ccc2c(c1)CN(C1CCC(=O)NC1=O)C2=O)C1CCC1 (stereo partly drawn) [Example 103]			> 1000	95	3					4	96
CCC(CC)N[C@H]1CCCC[C@@H]1Cc1ccc2c(c1)CN(C1CCC(=O)NC1=O)C2=O (stereo partly drawn) [Example 23, 3-(1-oxo-5-(((1R,2S)-2-(pentan-3-ylamino)cyclohexyl)methyl)isoindolin-2-yl)piperidine-2,6-dione]		14	374	95	6					6	98
O=C1CCC(N2Cc3cc(C[C@H]4CCCC[C@@H]4NC4CCCC4)ccc3C2=O)C(=O)N1 (stereo partly drawn) [Example 52, 3-(5-(((1R,2S)-2-(cyclopentylamino)cyclohexyl)methyl)-1-oxoisoindolin-2-yl)piperidine-2,6-dione]			> 1000	96	6					5	95

Now those with a lower DC50 [2], led by results:

DC50 [1] [nM]	Dmax [2] [%]	DC50 [2] [nM]	Dmax [3] [%]	DC50 [3] [nM]	Dmax ([1]; maximum degradation at the highest concentration tested) [%]	IKZF1 Dmax [2] [%]	IKZF2 Dmax [3] [%]	IKZF2 Dmax [4] [%]	DC50 [4] [nM]	Dmax [4] [%]	Structure (SMILES)
		163		5		32	96	98	3		CC1(C)CC(N[C@H]2CCCC[C@@H]2Cc2ccc3c(c2)CN(C2CCC(=O)NC2=O)C3=O)CCO1 (stereo partly drawn) [Example 110]
> 10000	39	114	97	11							O=C1CCC(N2Cc3cc(C[C@H]4CCCC[C@@H]4NC4CCc5c(C(F)(F)F)n[nH]c5C4)ccc3C2=O)C(=O)N1 (single isomer, unassigned) [Example 362]
	23	60	97	3					3	98	O=C1CCC(N2Cc3cc(C[C@H]4CCCC[C@@H]4NC4CCCCCC4)ccc3C2=O)C(=O)N1 (stereo partly drawn) [Example 196]
		57		2		44	97	91	1		O=C1CCC(N2Cc3c(ccc(C[C@H]4CCCC[C@@H]4NC4CCOC4)c3F)C2=O)C(=O)N1 (stereo partly drawn) [Example 118]
> 10000		50		1		56	97				O=C1CCC(N2Cc3cc(C[C@H]4CCCC[C@@H]4NC4CCc5c(C(F)(F)F)n[nH]c5C4)ccc3C2=O)C(=O)N1 (single isomer, unassigned) [Example 363]
> 10000	37	45	96	3							O=C1CCC(N2Cc3c(ccc(C[C@H]4OCCC[C@@H]4NC4CCC5(CC4)CC5(F)F)c3F)C2=O)C(=O)N1 (single isomer, unassigned) [Example 364]
		40		1		54	98		2	97	O=C1CCC(N2Cc3cc(C[C@H]4CCCC[C@@H]4NC4CCC5(CC4)CC5(F)F)ccc3C2=O)C(=O)N1 (single isomer, unassigned) [Example 272]
	46	39	97	2					1	92	O=C1CCC(N2Cc3c(ccc(C[C@H]4CCCC[C@@H]4NC4CCOC4)c3F)C2=O)C(=O)N1 (stereo partly drawn) [Example 117]
> 10000	71	16	95	3							CC1CC[C@H](NC2CCC(F)(F)CC2)[C@@H](Cc2ccc3c(c2)CN(C2CCC(=O)NC2=O)C3=O)C1 (single isomer, unassigned) [Example 324]
